The record followed here is patent US11753363B2, “13-oxidized ingenol derivative and use thereof” (Tianjin Pharmaceutical Da Ren Tang Group Corp., Ltd. …, priority 2017, dated 2023).

Structures are written as SMILES. ≈ marks a conversion by molar mass, not a printed value. A value given as a limit tells only on which side of the number the result lay.

The subject of assay [1] is K562 (human leukemia cells). Kind of assay: Inhibition of proliferation of tumor cell lines (MTT), K562. The format is cell-based. The note with it: Homo sapiens, K562, 72 h, read-out: IC50 value of compound for inhibition of proliferation of tumor cell lines, K562. The essentials: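 Cells in RPMI 1640 with 10% calf serum; adherent lines seeded at about 1×10^5/mL and attached 24 h, K562 at 2×10^5/mL. Compounds added in quadruplicate, 72 h at 37 °C, 5% CO2; MTT 4 h, DMSO-dissolved formazan read at 570 nm. IC50 from log-concentration versus inhibition-rate regression.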

The subject of assay [2] is LOVO (human colon cancer cells). Kind of assay: Inhibition of proliferation of tumor cell lines (MTT), LOVO. The class given is cell-based. The note with it: Homo sapiens, 72 h, read-out: IC50 value of compound for inhibition of proliferation of tumor cell lines, LOVO. The essentials: (§1)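 Adherent cells in RPMI 1640 with 10% calf serum were seeded at about 1×10^5·mL^−1 and allowed 24 h to attach. They were then exposed to graded compound concentrations (4 replicate wells) for 72 h at 37° C, 5% CO2. MTT was added for 4 h, formazan dissolved in DMSO, OD read at 570 nm; IC50 from log-concentration vs inhibition-rate regression.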

For another assay, the system named is B16-F0 mouse melanoma. In words: Antitumor activity in B16-F0 mouse melanoma model. The format is in vivo. To be noted: female C57BL/6J mice, intradermal B16 tumor, skin administration once per day for 3 days, 20 μL/mouse, tumor weight on day 19. On the procedure: This Example investigated the antitumor activity of compounds in B16-F0 mouse melanoma model.
In vitro passage of B16-F0 tumor source was inoculated subcutaneously into female C57BL/6J mice, and passage was carried out after tumor formation. After passage, the subcutaneous tumor tissue of the tumor-bearing mice was taken and ground with 3 times amount of physiological saline to form a tumor cell suspension, and 0.2 mL/mouse of which was inoculated subcutaneously into the axilla of forelimb of mice, which were used as the tumor-source mice. Female C57BL/6J mice were taken and their hair in an area of 4 cm^2 on the neck and back was shaven. After anesthesia with diethyl ether, B16 tumor source was inoculated intradermally at 0.05 mL/mouse. After 3 days of inoculation, the skin was continuously administered for 3 days, once per day, 20 μL/mouse each time, and in the test, a solvent group as a negative control group was included. On the 19th day of the experiment, the experiment was terminated. After the mice were euthanized, the intradermally transplanted tumors were completely separated and excised, and the tumor was weighed to calculate the tumor inhibition rate. Calculation formula of tumor inhibition rate: tumor inhibition rate (%)=(Wmodel group−Wadministration group)/Wmodel group×100%
The tumor growths of the experimental group and the solvent control group were compared to evaluate the antitumor activity of each compound, and the compound with P<0.05 was considered to be effective.

In assay [3] the test system is MCF-7 (human breast cancer cells). Kind of assay: Inhibition of proliferation of tumor cell lines (MTT), MCF-7. The class given is cell-based. The note with it: Homo sapiens, MCF7, MCF-7, 72 h, read-out: IC50 value of compound for inhibition of proliferation of tumor cell lines, MCF-7. The method in brief:
as §1

In assay [4] the test system is release of IL-8 by human keratinocytes (HaCaT). In words: Release of IL-8 by human keratinocytes (HaCaT), IL-8 Elisa. The format is cell-based. The note with it: Homo sapiens, HaCaT, 24 h, (Csample−Ccontrol)/Ccontrol×100%, read-out: Efficiency of compound in stimulating the release of IL-8 by HaCaT cells; for activation at 1 µg/mL: 1 μg/mL; for activation at 0.1 µg/mL: 0.1 μg/mL. The method in brief: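 HaCaT keratinocytes in MEM + 10% FBS, seeded 1×10^4 cells/well for 18-24 h, then switched to 1% FBS medium for 3-6 h. Exposed to a range of compound concentrations for 24 h at 37 °C, 5% CO2. Supernatant IL-8 measured by ELISA; efficiency (%) = (Csample − Ccontrol)/Ccontrol × 100%.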

In assay [5] the test system is HeLa (human cervical cancer cells). Kind of assay: Inhibition of proliferation of tumor cell lines (MTT), HeLa. To be noted: Homo sapiens, 72 h, read-out: IC50 value of compound for inhibition of proliferation of tumor cell lines, HeLA. The format is cell-based. The essentials:
as §1

In assay [6] the test system is neutrophilic granulocytes. Kind of assay: Neutrophil oxidative burst (luminol chemiluminescence). To be noted: Neutrophil, rat neutrophils, (Csample−Ccontrol)/Ccontrol×100%, read-out: Efficiency of compounds in stimulating neutrophil oxidative burst; for activation at 3 µg/mL: 3 μg/mL; for activation at 0.1 µg/mL: 0.1 μg/mL. The format is cell-based. The method in brief: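 Rat neutrophils isolated from abdominal aorta blood, resuspended in Hanks at 1×10^5 cells/well with 1 mM luminol stock added. Oxidative burst read by chemiluminescence after sample addition; efficiency (%) = (Csample−Ccontrol)/Ccontrol×100%.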

For assay [7], the system named is A549 (human lung cancer cells). Kind of assay: Inhibition of proliferation of tumor cell lines (MTT), A549. The note with it: Homo sapiens, A549, 72 h, read-out: IC50 value of compound for inhibition of proliferation of tumor cell lines, A549. The class given is cell-based. The essentials: as §1
For assay [8], the system named is BGC-823 (human gastric cancer cells). In words: Inhibition of proliferation of tumor cell lines (MTT), BGC-823. The class given is cell-based. To be noted: Homo sapiens, BGC-823, 72 h, read-out: IC50 value of compound for inhibition of proliferation of tumor cell lines, BGC-823. The method in brief:
as §1

In assay [9] the test system is SMMC-7721 (human liver cancer cells). In words: Inhibition of proliferation of tumor cell lines (MTT), SMMC-7721. The format is cell-based. To be noted: Homo sapiens, SMMC-7721, 72 h, read-out: IC50 value of compound for inhibition of proliferation of tumor cell lines, SMMC-7721. The method in brief: as §1
Assay [10] deals with mouse B16-F10 melanoma cells. Kind of assay: Inhibition of proliferation of tumor cell lines (MTT), B16-F10. The class given is cell-based. The note with it: Mus musculus, B16-F10, 72 h, read-out: IC50 value of compound for inhibition of proliferation of tumor cell lines, B16-F10. The method, then: In this example, the inhibitory activity of compounds of the present invention against proliferation of seven human tumor cell lines and mouse B16-F10 melanoma cells was tested in vitro, and the IC50 value (50% inhibitory concentration) of compounds against each tumor cell line was calculated.
IC50 values of the compounds for A549, BGC-823, LOVO, MCF-7, SMMC-7721, HeLa, and B16-F10 cells were tested. The above cells were routinely cultured in 1640 nutrient solution containing 10% calf serum, with passage for 1 time every 2 days, and the cells in logarithmic growth phase were taken for experiments. After the A549, BGC-823, LOVO, MCF-7, SMMC-7721, HeLa and B16-F10 cells in logarithmic growth phase were subjected to 0.25% trypsin digestion, they were blown into a single cell suspension, and then the cell concentration was adjusted to about 1×10^5·mL^−1 using RPMI 1640 solution containing 10% calf serum. The cells were seeded in a 96-well culture plate at 100 μL per well, and cultured for 24 hours until the cells were attached. K562 cells were taken and centrifuged and diluted into 2×10^5·mL^−1 single cell suspension with RPMI 1640 solution containing 10% calf serum, and inoculated into a 96-well culture plate at 100 μL per well.
100 μL of sample solution with different concentrations to be tested were added to the above 96-well plate, each concentration was added to 4 wells in parallel, and the cell control group was added with an equal volume of RPMI 1640 medium containing 10% calf serum to make a reaction volume of 200 μL. After incubating in an incubator at 37° C., 5% CO2 for 72 h, 10 μL of 5 mg·mL^−1 MTT solution was added to each well, and incubated at 37° C. for 4 h. The supernatant was carefully aspirated, 180 μL of DMSO was added to each well followed by shaking, and the absorbance (OD) value was measured at 570 nm on the microplate reader. The inhibition rate was calculated, and regression equation was established with the logarithmic value of the sample concentration and the inhibition rate (IR) to find the IC50 value of the compound against the cells to be tested. IR (%)=(1−OD value of the experimental group/OD value of the cell control group)×100%

With `C/C=C(/C)C(=O)O[C@H]1C(C)=C[C@]23C(=O)[C@@H](C=C(CO)[C@@H](O)[C@]12O)[C@@H]1C(C)(C)[C@]1(OC(=O)CCCCCCCCCCC)C[C@H]3C` [Compound 9, 3-O-angeloyl-13-O-dodecanoyl-ingenol], the IC50 in assay [1] was 1.87 µg/mL (≈ 2.97 µM); in assay [2], 10.1 µg/mL (≈ 16.1 µM); in assay [3], 10.1 µg/mL (≈ 16.1 µM); in assay [5] it was 12.5 µg/mL (≈ 19.9 µM); in assay [7], 10.8 µg/mL (≈ 17.2 µM); in [8], 0.85 µg/mL (≈ 1.35 µM). The IC50 in assay [9] is 8.86 µg/mL (≈ 14.1 µM); in assay [10] it was 10.4 µg/mL (≈ 16.5 µM). In addition, the Tumor-inhibition rate in the assay with B16-F0 mouse melanoma was 71.8%. In addition, the activation at 1 µg/mL in assay [4] was 23.5%. Further, the activation at 3 µg/mL in assay [6] turned out to be 77%.

For `CCCCCCCCCCCC(=O)O[C@@]12C[C@@H](C)[C@]34C=C(C)[C@H](OC(=O)C(C)(C)C)[C@@]3(O)[C@H](O)C(CO)=C[C@H](C4=O)[C@@H]1C2(C)C` [3-O-trimethylacetyl-13-O-dodecanoyl-ingenol], the IC50 in assay [1] was < 0.2 µg/mL; in [2] it was 9.68 µg/mL (≈ 15.3 µM); in assay [3], 8.79 µg/mL (≈ 13.9 µM); in assay [5], 14.2 µg/mL (≈ 22.5 µM); in [7], 17.5 µg/mL (≈ 27.7 µM); in assay [8], 6.81 µg/mL (≈ 10.8 µM). The IC50 in [9] came out at 15.1 µg/mL (≈ 23.9 µM); in assay [10] it was 7.7 µg/mL (≈ 12.2 µM). The Tumor-inhibition rate with B16-F0 mouse melanoma is 47.4%. Moreover, the figures for the activation at 0.1 µg/mL in [4] and in [6] were 83.7% and 205%, respectively.

Take `C/C=C(/C)C(=O)O[C@H]1C(C)=C[C@]23C(=O)[C@@H](C=C(CO)[C@@H](O)[C@]12O)[C@@H]1C(C)(C)[C@]1(OC(=O)CCCCCCC)C[C@H]3C` [Compound 18, 3-O-angeloyl-13-O-octanoyl-ingenol]: the IC50 in assay [1] came to 1.41 µg/mL (≈ 2.46 µM); in assay [2], 8.47 µg/mL (≈ 14.8 µM); in assay [3], 11.7 µg/mL (≈ 20.4 µM); in [5] it was 12.2 µg/mL (≈ 21.3 µM); in assay [7] it was 13.6 µg/mL (≈ 23.7 µM); in assay [8], 10.1 µg/mL (≈ 17.6 µM). The IC50 in [9] is 12.4 µg/mL (≈ 21.7 µM); in assay [10] it was 8.43 µg/mL (≈ 14.7 µM). For the same molecule, the Tumor-inhibition rate in the assay on B16-F0 mouse melanoma is recorded as 59.0%. Besides, the results for the activation at 0.1 µg/mL in assay [4] and in [6] were 29.8% and 69.1%, respectively.

As for `CCCCCCCCCCCC(=O)O[C@@]12C[C@@H](C)[C@]34C=C(C)[C@H](O)[C@@]3(O)[C@H](O)C(COC(C)=O)=C[C@H](C4=O)[C@@H]1C2(C)C` [Compound 12, 20-O-acetyl-13-O-dodecanoyl-ingenol], the IC50 in assay [1] stood at 0.06 µg/mL (≈ 0.102 µM); in assay [2], 6.71 µg/mL (≈ 11.4 µM); in assay [3], 12.7 µg/mL (≈ 21.6 µM); in assay [5], 32.3 µg/mL (≈ 54.9 µM); in assay [7], 16 µg/mL (≈ 27.2 µM); in assay [8], 10.3 µg/mL (≈ 17.5 µM). Also, the results for the IC50 in assay [9] and in [10] were 12.7 µg/mL (≈ 21.6 µM) and 14 µg/mL (≈ 23.8 µM), respectively. The molecule further came in with a Tumor-inhibition rate in the assay on B16-F0 mouse melanoma of 40.7%. Besides, the activation at 1 µg/mL in assay [4] came out at 37%. Besides, the activation at 3 µg/mL in [6] was 88.3%.
